Literature values as cited in patent US10184942B2, “Natriuretic peptide receptor as a biomarker for diagnosis and prognosis of cancer” (UNIVERSITY OF SOUTH FLORIDA, priority 2011, dated 2019).

System: PCa cells
Conditions: in vitro and in mice

Molecule	proliferation of PCa cells
CC[C@H](C)[C@@H]1NC(=O)[C@H](CCCNC(=N)N)NC(=O)[C@H](CC(=O)O)NC(=O)[C@H](CCSC)NC(=O)[C@H](CCCNC(=N)N)NC(=O)CNC(=O)CNC(=O)[C@H](Cc2ccccc2)NC(=O)[C@@H](NC(=O)[C@H](CO)NC(=O)[C@H](CO)NC(=O)[C@H](CCCNC(=N)N)NC(=O)[C@H](CCCNC(=N)N)NC(=O)[C@H](CC(C)C)NC(=O)[C@@H](N)CO)CSSC[C@@H](C(=O)N[C@@H](CC(N)=O)C(=O)N[C@@H](CO)C(=O)N[C@@H](Cc2ccccc2)C(=O)N[C@@H](CCCNC(=N)N)C(=O)N[C@@H](Cc2ccc(O)cc2)C(=O)O)NC(=O)CNC(=O)[C@H](CC(C)C)NC(=O)CNC(=O)[C@H](CO)NC(=O)[C@H](CCC(N)=O)NC(=O)[C@H](C)NC(=O)CNC1=O [ANP, atrial natriuretic peptide]	inhibit the proliferation
VD: vessel dilator, an ANP prohormone peptide (EVVPPQVLSEPNEEAGAALSPLPEVPPWTGEVSPAQR; Vessel dilator; UniProt P01160 56-92, looked up)	inhibit the proliferation
